What was measured:
[1] = test system: mineralocorticoid receptor 2 mRNA; assay: mRNA of mineralocorticoid receptor 2 within the adrenal glands; format: in vivo, rat; conditions: compared to sham group
Experimental: FIG. 18: mRNA of mineralocorticoid receptor 2. Within the adrenal glands of the same animals from the sham or endometriosis groups that received vehicle or antalarmin, the mRNA of the mineralocorticoid receptor 2 was measured. This receptor is in charge of binding adrenocorticotropic hormone (ACTH), which was elevated in animals that received antalarmin. The mineralocorticoid receptor mRNA expression is decreased in response to antalarmin as compared to the sham group. This could be due to a down regulation of the receptor in response to increased ACTH circulating levels. ** p<0.01.

[2] = test system: CRH, UCN1, CRHR1, CRHR2 and glucocorticoid receptor (GR) mRNA; assay: qRT-PCR of mRNA levels in uterus and endometriosis vesicles; format: in vivo, rat; conditions: normalized to sham uterus, day 60
Experimental: Endometriosis vesicles and normal uterine tissue from endometriosis or sham rats, were lysed in an RLT buffer (QIAGEN, Germantown, Md.) using the BULLET BLENDER Tissue Homogenizer (NEXT ADVANCE, Averill Park, N.Y.). The total RNA from the lysates were extracted according to RNEASY Mini Kit manufacturer's protocol (QIAGEN, Germantown, Md.). RNA concentration and purity were measured on a NanoDrop™ 2000 UV spectrophotometer (Thermo Scientific™, Wilmington, USA). Concentration and quality of RNA samples were acquired based on the ratio of absorbance at 260/280 nm in the spectrophotometer. To carry out the synthesis of cDNA from RNA samples a total reaction volume of 20 μl including 0.1 μg of total RNA concentration and synthesis reagents was used. A iScript™ cDNA Synthesis Kit was used according to manufacturer's protocol (BIO-RAD, Hercules, Calif.). Reactions were carried out in T-100™ thermal cycler (BIO-RAD, Hercules, Calif.). RT-PCR running method was as follows: 25° C. for 5 min, 42° C. for 30 min, 85° C. for 5 min. Samples were stored at −80° C. for later experimentation or qRT-PCR.
Real time quantitative PCR (qPCR) was used to evaluate changes in mRNA expression. For this, 25 μl of a total volume of reaction assay was used with 1:10 dilution of cDNA with iQ™ SYBR Green Supermix (BIO-RAD Hercules, Calif.) in a 96 well plate according to the manufacturer protocol and amplified in a Quant Studio™ 12 K Flex Real time PCR System (Applied Biosystems™, Carlsbad, Calif.). Commercial primers for CRH, UCN1 CRHR1, CRHR2 and glucocorticoid receptor (GR) were purchased from QIAGEN (Germantown, Md.). Real time PCR cycles protocol was as follows: 95° C. for 10 min. for enzyme activation followed by 40 cycles of denaturing at 95° C. for 15 sec. and annealing at 60° C. for 1 min. All changes in gene expression were normalized against GAPDH of each sample. CT values and changes per gene expression level were automatically analyzed by the Quantstudio™ 12 K Flex Software (Applied Biosystems™, Carlsbad, Calif.). All samples were run in duplicate. For comparison purposes, mRNA from sham rats were always run within the same plate as experimental samples from vehicle treated and antalarmin treated groups.
GraphPad Prism 6.0 (GraphPad Software, San Diego, Calif.) was used to prepare graphs and run statistical analyses. Data is presented as mean difference+SEM and a p value <0.05 was considered statistically significant. The variability between groups was first assessed followed by a test for outlier values. […] A One-way analysis of variance (ANOVA) was used to compare behaviors. A one-sample t-test against the sham rats value normalized to 1.0. was used to assess RT-PCR results. A repeated measures One-way ANOVA was used to compare changes in weight gain between treatment groups.

CCCCN(CC)c1nc(C)nc2c1c(C)c(C)n2-c1c(C)cc(C)cc1C [antalarmin]
mineralocorticoid receptor 2 mRNA expression in adrenal glands [1]: decreased | UCN1 mRNA in uterus and vesicles [2]: not altered | glucocorticoid receptor (GR) mRNA in uterus [2]: no changes in uterus | glucocorticoid receptor (GR) mRNA in vesicles [2]: significant mRNA fold increase | CRHR2 mRNA in uterus and vesicles ([2]; increase only in vesicles of vehicle animals): No other changes were observed | CRHR1 mRNA in endometriosis vesicles ([2]; increased in vehicle group): this increase was not observed | CRH mRNA in uterus and vesicles ([2]; two-fold increase in vehicle rats): this increase was not observed

Reference: US10729693B2, “Compositions and methods for the treatment of endometriosis” (PONCE MEDICAL SCHOOL FOUNDATION, INC., priority 2018, dated 2020)
